Usually IC50 stands for the concentration at which inhibition is half-maximal.

The record followed here is patent US12459932B2, “KIF18A inhibitors” (AMGEN INC., priority 2018, dated 2025).

The target of this assay is T1, Recombinant human KIF18A (1-467 His-tagged) (Homo sapiens, UniProt Q8NI77).
T1 construct: Recombinant human KIF18A (1-467 His-tagged) protein; His
T1 sequence (Q8NI77 1-467): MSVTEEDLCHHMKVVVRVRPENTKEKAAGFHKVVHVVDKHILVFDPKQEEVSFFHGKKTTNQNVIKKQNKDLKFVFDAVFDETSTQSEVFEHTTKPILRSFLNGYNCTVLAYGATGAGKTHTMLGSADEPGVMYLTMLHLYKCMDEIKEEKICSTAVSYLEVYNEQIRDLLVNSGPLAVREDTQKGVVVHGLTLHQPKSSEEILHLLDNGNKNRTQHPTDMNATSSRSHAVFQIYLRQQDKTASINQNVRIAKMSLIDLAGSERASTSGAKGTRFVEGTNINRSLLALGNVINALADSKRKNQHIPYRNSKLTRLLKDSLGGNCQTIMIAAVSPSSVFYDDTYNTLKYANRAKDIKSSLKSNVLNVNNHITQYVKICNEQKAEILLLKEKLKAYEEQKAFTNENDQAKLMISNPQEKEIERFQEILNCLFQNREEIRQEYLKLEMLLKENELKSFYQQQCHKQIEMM
T1 sequence (P02550 whole entry partner): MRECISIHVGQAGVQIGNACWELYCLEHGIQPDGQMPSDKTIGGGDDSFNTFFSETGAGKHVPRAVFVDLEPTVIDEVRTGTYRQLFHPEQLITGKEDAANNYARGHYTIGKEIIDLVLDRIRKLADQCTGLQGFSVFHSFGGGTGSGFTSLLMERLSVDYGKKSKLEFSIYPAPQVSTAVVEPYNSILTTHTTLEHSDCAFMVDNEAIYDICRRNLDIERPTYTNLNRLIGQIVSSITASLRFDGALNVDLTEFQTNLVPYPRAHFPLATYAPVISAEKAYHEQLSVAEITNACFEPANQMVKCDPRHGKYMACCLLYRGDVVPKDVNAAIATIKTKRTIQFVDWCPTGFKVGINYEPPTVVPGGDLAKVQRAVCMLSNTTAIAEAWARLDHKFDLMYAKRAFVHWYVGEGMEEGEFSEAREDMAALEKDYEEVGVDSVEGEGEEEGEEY
T1 sequence (P02554 whole entry partner): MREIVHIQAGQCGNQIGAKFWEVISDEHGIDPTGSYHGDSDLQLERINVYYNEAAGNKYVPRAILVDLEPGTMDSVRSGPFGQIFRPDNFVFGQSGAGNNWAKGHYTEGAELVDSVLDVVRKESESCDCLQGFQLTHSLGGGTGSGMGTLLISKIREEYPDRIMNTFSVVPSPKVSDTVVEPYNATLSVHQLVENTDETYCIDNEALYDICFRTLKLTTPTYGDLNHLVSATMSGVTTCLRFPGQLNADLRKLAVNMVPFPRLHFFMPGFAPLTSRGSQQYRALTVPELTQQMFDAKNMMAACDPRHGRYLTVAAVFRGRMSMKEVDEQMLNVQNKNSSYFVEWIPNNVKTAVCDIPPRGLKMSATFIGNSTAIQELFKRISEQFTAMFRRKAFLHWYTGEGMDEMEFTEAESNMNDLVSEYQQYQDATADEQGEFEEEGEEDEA
The assay is described as follows: KIF18A Enzyme Assay: microtubule-stimulated ATPase activity (ADP-Glo). Type of assay: biochemical. The note with it: 30 nM KIF18A, 30 μg/mL pig microtubules, ATP 75 μM (Km), ADP-Glo luminescence. How it is done:
KIF18A Enzyme Assay: Microtubule-stimulated ATPase activity assay is used to measure KIF18A enzyme activity after treatment with compound. Compounds were 2-fold serially diluted in DMSO (Sigma Inc) over 22-point concentration range. […] The assay measures ADP formed from the ATPase reaction. […] Read luminescence using EnVision microplate reader with ultra-luminescence module (Perkin Elmer Inc). Concentration-response curve-fitting and IC50 determination was performed using Genedata Screener Software (Standard 15.0.1, Genedata Inc) with a four-parameter logistic regression fit model.
(ADP-Glo turns the ADP formed in a reaction into a luminescent signal.)
As for `Cc1cc(NC(=O)c2ccc(NS(=O)(=O)[C@@H](C)CO)cc2N2CCC3(CC2)CC3)nc(N2CCO[C@H](C)C2)c1` (single isomer, unassigned) [Example 9-12], the IC50 is 39 nM. Take `CC(C)c1cccc(NC(=O)c2ccc(S(C)(=O)=O)cc2N2CCC3(CC2)CC3)n1` [Example 4-5, N-(6-Isopropylpyridin-2-yl)-4-(methylsulfonyl)-2-(6-azaspiro[2.5]octan-6-yl)benzamide]: the IC50 was 179 nM. The same measure for `Cc1cc(NC(=O)c2ccc(NS(C)(=O)=O)cc2N2CCC3(CC2)CC3)nc(N2CCC(F)(F)CC2)c1` [Example 7-21, N-(6-(4,4-Difluoropiperidin-1-yl)-4-methylpyridin-2-yl)-4-(methylsulfonamido)-2-(6-azaspiro[2.5]octan-6-yl)benzamide]: 49 nM; for `CC1(S(=O)(=O)Nc2ccc(C(=O)Nc3cccc(N4CCC[C@@](C)(O)C4)n3)c(N3CCC4(CC3)CC4)c2)CC1` [Example 3-10, (R)-N-(6-(3-Hydroxy-3-methylpiperidin-1-yl)pyridin-2-yl)-4-((1-methylcyclopropane)-1-sulfonamido)-2-(6-azaspiro[2.5]octan-6-yl)benzamide]: 143 nM.

Turning to `N=S(=O)(c1ccc(C(=O)Nc2cccc(OCCC(F)(F)F)n2)c(N2CCC3(CC2)CC3)c1)C1CC1` (single isomer, unassigned) [Example 27-1, 2-(6-Azaspiro[2.5]octan-6-yl)-4-(S-cyclopropylsulfonimidoyl)-N-(6-(3,3,3-trifluoropropoxy)-2-pyridinyl)benzamide], the IC50 turned out to be 22 nM. For the compound `Cc1cc(NC(=O)c2ccc(NS(=O)(=O)C(C)C)cc2N2CCC3(CC2)CC3)nc(N2CC(F)(F)C2)c1` [Example 7-28, N-(6-(3,3-Difluoroazetidin-1-yl)-4-methylpyridin-2-yl)-4-((1-methylethyl)sulfonamido)-2-(6-azaspiro[2.5]octan-6-yl)benzamide], the half-maximal inhibitory concentration (IC50) turned out to be 68 nM.

On to `Cc1cc(NC(=O)c2ccc(NS(=O)(=O)[C@H](C)CO)cc2N2CCC3(CC2)CC3)nc(N2CC(F)(F)C2)c1` (single isomer, unassigned) [Example 9-5], for which the IC50 came out at 17 nM. As to `C[C@@H]1CN(c2cccc(NC(=O)c3ccc(S(=O)(=O)C(C)(C)C)cc3N3CCC4(CC3)CC4)n2)CCO1` [Example 2-2, (R)-4-(tert-Butylsulfonyl)-N-(6-(2-methylmorpholino)pyridin-2-yl)-2-(6-azaspiro[2.5]octan-6-yl)benzamide], the IC50 came to 78 nM. In the case of `Cc1cc(NC(=O)c2ccc(NS(=O)(=O)CCO)cc2N2CCC3(CC2)CC3)nc(N2CC(F)(F)C2)c1` [Example 11, N-(6-(3,3-Difluoroazetidin-1-yl)-4-methylpyridin-2-yl)-4-((2-hydroxyethyl)sulfonamido)-2-(6-azaspiro[2.5]octan-6-yl)benzamide], the 50% inhibitory concentration (IC50) is 31 nM. As to `CC1(S(=O)(=O)Nc2ccc(C(=O)Nc3cccc(N4CCC[C@H](O)C4)n3)c(N3CCC4(CC3)CC4)c2)CC1` [Example 3-1, (S)-N-(6-(3-Hydroxypiperidin-1-yl)pyridin-2-yl)-4-((1-methylcyclopropane)-1-sulfonamido)-2-(6-azaspiro[2.5]octan-6-yl)benzamide], the IC50 was determined as 56 nM.

As for `CC1(S(=O)(=O)Nc2ccc(C(=O)Nc3cccc(N4CCCC(F)(F)C4)n3)c(N3CCC4(CC3)CC4)c2)CC1` [Example 3-14, N-(6-(3,3-Difluoropiperidin-1-yl)pyridin-2-yl)-4-((1-methylcyclopropane)-1-sulfonamido)-2-(6-azaspiro[2.5]octan-6-yl)benzamide], the IC50 came to 38 nM. For `CN1CC(COc2cccc(NC(=O)c3ccc(NS(=O)(=O)CCO)cc3N3CCC4(CC3)CC4)n2)C1` [Example 16-3, 4-((2-Hydroxyethyl)sulfonamido)-N-(6-((1-methylazetidin-3-yl)methoxy)pyridin-2-yl)-2-(6-azaspiro[2.5]octan-6-yl)benzamide], the IC50 is 63 nM. Regarding `O=C(Nc1cccc(OCCC(O)C(F)(F)F)n1)c1ccc(NS(=O)(=O)CCO)cc1N1CCC2(CC1)CC2` (centres unmarked) [Example 16-6, 4-((2-Hydroxyethyl)sulfonamido)-2-(6-azaspiro[2.5]octan-6-yl)-N-(6-(4,4,4-trifluoro-3-hydroxybutoxy)pyridin-2-yl)benzamide], the IC50 turned out to be 81 nM. The result for `C[C@H](CO)S(=O)(=O)Nc1ccc(C(=O)Nc2cccc(N3CC(F)(F)C3)n2)c(N2CCC3(CC2)CC3)c1` (single isomer, unassigned) [Example 9-3] reads 25 nM; that for `C[C@@H]1CN(c2cccc(NC(=O)c3ccc(S(=O)(=O)CCO)cc3N3CCC4(CC3)CC4)n2)CCO1` [Example 2-1, (R)-4-((2-Hydroxyethyl)sulfonyl)-N-(6-(2-methylmorpholino)pyridin-2-yl)-2-(6-azaspiro[2.5]octan-6-yl)benzamide], 32 nM. The same measure for `C[C@@H]1CN(c2cccc(NC(=O)c3ccc(N4CCS4(=O)=O)cc3N3CCC4(CC3)CC4)n2)CCO1` [Example 7-6, (R)-4-(1,1-Dioxido-1,2-thiazetidin-2-yl)-N-(6-(2-methylmorpholino)pyridin-2-yl)-2-(6-azaspiro[2.5]octan-6-yl)benzamide]: 98 nM; for `Cc1cc(NC(=O)c2ccc(NS(=O)(=O)CCO)cc2N2CCC3(CC2)CC3)nc(OCCC(F)(F)F)c1` [Example 17, 4-((2-Hydroxyethyl)sulfonamido)-N-(4-methyl-6-(3,3,3-trifluoropropoxy)pyridin-2-yl)-2-(6-azaspiro[2.5]octan-6-yl)benzamide]: 24 nM.

`O=C(Nc1cccc(OCC(O)C(F)(F)F)n1)c1ccc(NS(=O)(=O)CCO)cc1N1CCC2(CC1)CC2` (centres unmarked) [Example 16-8, 4-((2-Hydroxyethyl)sulfonamido)-2-(6-azaspiro[2.5]octan-6-yl)-N-(6-(3,3,3-trifluoro-2-hydroxypropoxy)pyridin-2-yl)benzamide]: the IC50 was determined as 18 nM. The same measure for `CNS(=O)(=O)c1ccc(C(=O)Nc2cccc(N3CCO[C@H](C)C3)n2)c(N2CCC3(CC2)CC3)c1` [Example 1-3, (R)-N-(6-(2-Methylmorpholino)pyridin-2-yl)-4-(N-methylsulfamoyl)-2-(6-azaspiro[2.5]octan-6-yl)benzamide]: 44 nM; for `C[C@@H]1CN(c2cc(C3CC3)cc(NC(=O)c3ccc(NS(=O)(=O)CCO)cc3N3CCC4(CC3)CC4)n2)CCO1` [Example 19, (R)—N-(4-cyclopropyl-6-(2-methylmorpholino)pyridin-2-yl)-4-((2-hydroxyethyl)sulfonamido)-2-(6-azaspiro[2.5]octan-6-yl)benzamide]: 87 nM; for `C[C@@H]1CN(c2cccc(NC(=O)c3ccc(NS(=O)(=O)N(C)C)cc3N3CCC4(CC3)CC4)n2)CCO1` [Example 7-5, (R)-4-((N,N-Dimethylsulfamoyl)amino)-N-(6-(2-methylmorpholino)pyridin-2-yl)-2-(6-azaspiro[2.5]octan-6-yl)benzamide]: 55 nM. The same measure for `Cc1cc(NC(=O)c2ccc(CS(C)(=O)=O)cc2N2CCC3(CC2)CC3)nc(N2CCOCC2)c1` [Example 4-16, N-(4-Methyl-6-morpholinopyridin-2-yl)-4-((methylsulfonyl)methyl)-2-(6-azaspiro[2.5]octan-6-yl)benzamide]: 145 nM; for `CC1(S(=O)(=O)Nc2ccc(C(=O)Nc3cccc(N4CCC(F)(F)C4)n3)c(N3CCC4(CC3)CC4)c2)CC1` [Example 3-5, N-(6-(3,3-Difluoropyrrolidin-1-yl)pyridin-2-yl)-4-((1-methylcyclopropane)-1-sulfonamido)-2-(6-azaspiro[2.5]octan-6-yl)benzamide]: 45 nM; for `Cc1cc(NC(=O)c2ccc([S@](=N)(=O)C3CC3)cc2N2CCC3(CC2)CC3)nc(N2CCC(F)(F)CC2)c1` (single isomer, unassigned) [Example 30-1, 2-(6-Azaspiro[2.5]octan-6-yl)-4-(S-cyclopropylsulfonimidoyl)-N-(6-(4,4-difluoro-1-piperidinyl)-4-methyl-2-pyridinyl)benzamide]: 81 nM. For `C[C@@H]1CN(c2cccc(NC(=O)c3ccc([S@@](=N)(=O)C(C)(C)C)cc3N3CCC4(CC3)CC4)n2)CCO1` (single isomer, unassigned) [Example 13-2], the IC50 was 182 nM. With `Cc1cc(NC(=O)c2ccc(S(=O)(=O)NCCO)cc2N2CCC3(CC2)CC3)nc(N2CCC(F)(F)CC2)c1` [Example 1-2, N-(6-(4,4-Difluoropiperidin-1-yl)-4-methylpyridin-2-yl)-4-(N-(2-hydroxyethyl)sulfamoyl)-2-(6-azaspiro[2.5]octan-6-yl)benzamide], the IC50 worked out at 32 nM. The same measure for `Cc1cc(NC(=O)c2ccc(NS(=O)(=O)C(C)(C)C)cc2N2CCC3(CC2)CC3)nc(N2CC(F)(F)C2)c1` [Example 7-29, N-(6-(3,3-Difluoroazetidin-1-yl)-4-methylpyridin-2-yl)-4-((1,1-dimethylethyl)sulfonamido)-2-(6-azaspiro[2.5]octan-6-yl)benzamide]: 134 nM; for `C[C@@H]1CN(c2cccc(NC(=O)c3ccc(S(=O)(=O)C(C)(C)CO)cc3N3CCC4(CC3)CC4)n2)CCO1` [Example 2-5, (R)-4-((1-Hydroxy-2-methylpropan-2-yl)sulfonyl)-N-(6-(2-methylmorpholino)pyridin-2-yl)-2-(6-azaspiro[2.5]octan-6-yl)benzamide]: 51 nM; for `Cc1cc(NC(=O)c2ccc(NS(=O)(=O)CC3CC3)cc2N2CCC3(CC2)CC3)nc(N2CC(F)(F)C2)c1` [Example 7-31, 4-((Cyclopropylmethyl)sulfonamido)-N-(6-(3,3-difluoroazetidin-1-yl)-4-methylpyridin-2-yl)-2-(6-azaspiro[2.5]octan-6-yl)benzamide]: 59 nM.
